# Source: patent US7807701B2, “Dibenzylamine compounds and pharmaceutical use thereof” (Japan Tobacco Inc., priority 2002, dated 2010)
# Structures can show the parent of a compound that is named as a salt.
# Target: T1, CETP (Homo sapiens, UniProt P11597)
# T1 construct: The donor lipoprotein obtained above was added to plasma of healthy subject; from tissue; host or cells: whole plasma of healthy subject
# T1 sequence (P11597 18-493): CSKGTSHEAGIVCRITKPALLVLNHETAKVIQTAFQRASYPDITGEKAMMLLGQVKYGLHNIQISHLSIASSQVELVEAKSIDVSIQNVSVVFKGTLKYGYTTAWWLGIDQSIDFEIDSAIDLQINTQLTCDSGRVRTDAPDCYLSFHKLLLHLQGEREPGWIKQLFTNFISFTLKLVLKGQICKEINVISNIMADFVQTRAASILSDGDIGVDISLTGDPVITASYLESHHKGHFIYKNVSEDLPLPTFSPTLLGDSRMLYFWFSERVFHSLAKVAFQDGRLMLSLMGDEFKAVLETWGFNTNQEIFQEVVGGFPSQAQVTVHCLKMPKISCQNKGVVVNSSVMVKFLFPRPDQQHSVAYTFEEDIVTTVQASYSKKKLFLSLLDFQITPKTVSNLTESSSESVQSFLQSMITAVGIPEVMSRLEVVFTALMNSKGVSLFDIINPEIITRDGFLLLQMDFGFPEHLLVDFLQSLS
# Assay: Inhibitory effect in vitro on CETP activity in total plasma
# Format: biochemical
# Conditions: plasma of healthy subject with [3H]CE-HDL3, 37° C., 4 hr; average values
# Procedure: Potassium bromide (KBr) was added to plasma (40 mL) of healthy subject and the mixture was adjusted to have a specific density d=1.125 g/mL. The mixture was subjected to density gradient centrifugation (227,000×g, 4° C., 17 hr) and a fraction showing a specific density of d>1.125 g/mL (HDL3 fraction) was harvested. The obtained fraction was dialyzed against PBS solution [10 mmol/L Na2HPO4; 10 mmol/L NaH2PO4; 0.15 mol/L NaCl; […] (pH 7.4)]. Then, tritium-labeled cholesterol (37 MBq) was dissolved in 95% ethanol, gradually added to the above-mentioned HDL3 fraction with stirring and incubated at 37° C. for 18 hr. [By this operation, tritium-labeled cholesterol was esterified by the action of lecithin acyl transferase (LCAT) present on the HDL3 surface and taken up into HDL3 as tritium-labeled cholesteryl ester ([^3H]CE)]. After incubation, KBr was added, the mixture was adjusted to have a specific density d=1.21 g/mL, subjected to density gradient centrifugation (227,000×g, 4° C., 17 hr) and a fraction of specific density […] was harvested. The obtained fraction was dialyzed against the aforementioned PBS solution to give HDL3 incorporating [^3H]CE ([^3H]CE-HDL3, specific density: 1.125<d<1.21, specific activity: 10,000 dpm/μL), which was used as a donor lipoprotein.
# The donor lipoprotein obtained above was added to plasma of healthy subject to prepare a [^3H]CE-HDL3-containing plasma (1,000 dpm/μL). The compound was dissolved in dimethyl formamide. A solution of the compound or a solvent alone (2 μL) and the [^3H]CE-HDL3-containing plasma (100 μL) were added into a microtube, and this was incubated at 37° C. or 4° C. for 4 hr. After ice-cooling, TBS solution [100 μL, 20 mmol/L Tris; 0.15 mol/L NaCl (pH 7.4)] containing 1 mol/L magnesium chloride and 2% dextran sulfate was added to each microtube and the mixture was thoroughly stirred. After keeping at 4° C. for 30 min, the mixture was centrifuged (10,000×g, 4° C., 10 min), and the radioactivity in the obtained supernatant (HDL fraction) was measured with a scintillation counter. […] The concentration of the compound necessary for inhibiting the CETP activity by 50% was calculated as an IC50 value.
row,IC50 [nM],Compound
1,240,"CCN(CC1CCCC1)c1cc2c(cc1CN(Cc1cc(C(F)(F)F)cc(C(F)(F)F)c1)c1nnn(C)n1)CCC2 [Example 3, N-[3,5-bis(trifluoromethyl)benzyl]-N-[6-(N′-cyclopentylmethyl-N′-ethylamino)indan-5-ylmethyl]-(2-methyl-2H-tetrazol-5-yl)amine]"
2,630,"CCN(CCCCC(=O)O)c1cc2c(cc1CN(Cc1cc(C(F)(F)F)cc(C(F)(F)F)c1)c1noc(C)n1)CCC2 [Example 8, 5-{N-(6-{[N′-[3,5-bis(trifluoromethyl)benzyl]-N′-(5-methyl-[1,2,4]oxadiazol-3-yl)amino]methyl}indan-5-yl)-N-ethylamino}pentanoic acid hydrochloride]"
3,230,"CCN(CC1CCCC1)c1cc2c(cc1CN(Cc1cc(C#N)cc(C(F)(F)F)c1)c1nnn(C)n1)CCC2 [Example 10, 3-{[N-[6-(N′-cyclopentylmethyl-N′-ethylamino)indan-5-ylmethyl]-N-(2-methyl-2H-tetrazol-5-yl)amino]methyl}-5-trifluoromethylbenzonitrile]"
4,250,"CCN(CC1CCCC1)c1cc2c(cc1CN(Cc1cc(C(F)(F)F)cc(C(F)(F)F)c1)c1ncn(C)n1)CCC2 [Example 12, N-[3,5-bis(trifluoromethyl)benzyl]-N-[6-(N′-cyclopentylmethyl-N′-ethylamino)indan-5-ylmethyl]-(1-methyl-1H-[1,2,4]triazol-3-yl)amine]"
5,580,"CCN(CC1CCCC1)c1cc2c(cc1CN(Cc1cc(C#N)cc(C(F)(F)F)c1)c1ccccc1)CCC2 [Example 13, 3-({N-[6-(N′-cyclopentylmethyl-N′-ethylamino)indan-5-ylmethyl]-N-phenylamino}methyl)-5-trifluoromethylbenzonitrile]"
6,440,"CCN(CC1CCCC1)c1cc2c(cc1CN(Cc1cc(C(F)(F)F)cc(C(F)(F)F)c1)c1cnn(C)c1)CCC2 [Example 28, N-[3,5-bis(trifluoromethyl)benzyl]-N-[6-(N′-cyclopentylmethyl-N′-ethylamino)indan-5-ylmethyl]-(1-methyl-1H-pyrazol-4-yl)amine hydrochloride]"
7,560,"CCN(CC1CCCC1)c1ccc(C(F)(F)F)cc1CN(Cc1cc(C(F)(F)F)cc(C(F)(F)F)c1)c1nnn(C)n1 [Example 33, N-[3,5-bis(trifluoromethyl)benzyl]-N-[2-(N′-cyclopentylmethyl-N′-ethylamino)-5-trifluoromethylbenzyl]-(2-methyl-2H-tetrazol-5-yl)amine hydrochloride]"
8,700,"CCN(C[C@H]1CC[C@H](C(=O)OC)CC1)c1cc2c(cc1CN(Cc1cc(C(F)(F)F)cc(C(F)(F)F)c1)c1ccn(C)n1)CCCC2 [Example 42, methyl trans-4-{[N-(3-{[N′-[3,5-bis(trifluoromethyl)benzyl]-N′-(1-methyl-1H-pyrazol-3-yl)amino]methyl}-5,6,7,8-tetrahydronaphthalen-2-yl)-N-ethylamino]methyl}cyclohexanecarboxylate hydrochloride]"
9,550,"CCN(C[C@H]1CC[C@H](C(=O)OC)CC1)c1cc2c(cc1CN(Cc1cc(C#N)cc(C(F)(F)F)c1)c1ccn(C)n1)CCCC2 [Example 43, methyl trans-4-{[N-(3-{[N′-(3-cyano-5-trifluoromethylbenzyl)-N′-(1-methyl-1H-pyrazol-3-yl)amino]methyl}-5,6,7,8-tetrahydronaphthalen-2-yl)-N-ethylamino]methyl}cyclohexanecarboxylate hydrochloride]"
10,490,"CCN(C[C@H]1CC[C@H](C(=O)O)CC1)c1cc2c(cc1CN(Cc1cc(C#N)cc(C(F)(F)F)c1)c1ccn(C)n1)CCCC2 [Example 45, trans-4-{[N-(3-{[N′-(3-cyano-5-trifluoromethylbenzyl)-N′-(1-methyl-1H-pyrazol-3-yl)amino]methyl}-5,6,7,8-tetrahydronaphthalen-2-yl)-N-ethylamino]methyl}cyclohexanecarboxylic acid hydrochloride]"
11,390,"CCN(CC1CCCC1)c1cc2c(cc1CN(Cc1cc(C(F)(F)F)cc(C(F)(F)F)c1)c1noc(C)n1)CCC2 [Example 46, N-[3,5-bis(trifluoromethyl)benzyl]-N-[6-(N′-cyclopentylmethyl-N′-ethylamino)indan-5-ylmethyl]-(5-methyl-[1,2,4]oxadiazol-3-yl)amine hydrochloride]"

# The remaining lines, values behind:
row,Compound,IC50 [nM]
1,"CCN(CC1CCCC1)c1cc2c(cc1CN(Cc1cc(C(F)(F)F)cc(C(F)(F)F)c1)c1nnn(C)n1)CCCC2 [Example 1, N-[3-(N′-cyclopentylmethyl-N′-ethylamino)-5,6,7,8-tetrahydronaphthalen-2-ylmethyl]-N-[3,5-bis(trifluoromethyl)benzyl]-(2-methyl-2H-tetrazol-5-yl)amine]",230
2,"CCN(CC1CCCC1)c1cc2c(cc1CN(Cc1cc(C#N)cc(C(F)(F)F)c1)c1nnn(C)n1)CCCC2 [Example 2, 3-{[N-[3-(N′-cyclopentylmethyl-N′-ethylamino)-5,6,7,8-tetrahydronaphthalen-2-ylmethyl]-N-(2-methyl-2H-tetrazol-5-yl)amino]methyl}-5-trifluoromethylbenzonitrile]",80
3,"CCN(CC1CCCC1)c1cc2c(cc1CN(Cc1cc(C(F)(F)F)cc(C(F)(F)F)c1)c1nnn(C)n1)CCC2 [Example 4, N-[3,5-bis(trifluoromethyl)benzyl]-N-[6-(N′-cyclopentylmethyl-N′-ethylamino)indan-5-ylmethyl]-(2-methyl-2H-tetrazol-5-yl)amine hydrochloride]",180
4,"CCN(CC1CCCC1)c1cc2c(cc1CN(Cc1cc(C(F)(F)F)cc(C(F)(F)F)c1)c1cc(C)[nH]n1)CCC2 [Example 7, N-[6-(N′-cyclopentylmethyl-N′-ethylamino)indan-5-ylmethyl]-N-[3,5-bis(trifluoromethyl)benzyl]-(5-methyl-1H-pyrazol-3-yl)amine]",270
5,"CCN(CC1CCCC1)c1cc2c(cc1CN(Cc1cc(C(F)(F)F)cc(C(F)(F)F)c1)c1nnn(CC)n1)CCC2 [Example 11, N-[3,5-bis(trifluoromethyl)benzyl]-N-[6-(N′-cyclopentylmethyl-N′-ethylamino)indan-5-ylmethyl]-(2-ethyl-2H-tetrazol-5-yl)amine]",630
6,"CCN(CC1CCCC1)c1cc2c(cc1CN(Cc1cc(C(F)(F)F)cc(C(F)(F)F)c1)c1cc(C)no1)CCC2 [Example 26, N-[3,5-bis(trifluoromethyl)benzyl]-N-[6-(N′-cyclopentylmethyl-N′-ethylamino)indan-5-ylmethyl]-(3-methylisoxazol-5-yl)amine hydrochloride]",470
7,"CCN(CC1CCCC1)c1cc2c(cc1CN(Cc1cc(C(F)(F)F)cc(C(F)(F)F)c1)c1ccn(C)n1)CCC2 [Example 27, N-[3,5-bis(trifluoromethyl)benzyl]-N-[6-(N′-cyclopentylmethyl-N′-ethylamino)indan-5-ylmethyl]-(1-methyl-1H-pyrazol-3-yl)amine hydrochloride]",580
8,"CCN(CC1CCCC1)c1ccc(C(F)(F)F)cc1CN(Cc1cc(C#N)cc(C(F)(F)F)c1)c1nnn(C)n1 [Example 34, 3-{[N-[2-(N′-cyclopentylmethyl-N′-ethylamino)-5-trifluoromethylbenzyl]-N-(2-methyl-2H-tetrazol-5-yl)amino]methyl}-5-trifluoromethylbenzonitrile hydrochloride]",220
9,"CCN(CCCCC(=O)OC)c1cc2c(cc1CN(Cc1cc(C#N)cc(C(F)(F)F)c1)c1nnn(C)n1)CCC2.Cl [Example 36, hydrochloride]",340
10,"CCN(C[C@H]1CC[C@H](C(=O)O)CC1)c1cc2c(cc1CN(Cc1cc(C(F)(F)F)cc(C(F)(F)F)c1)c1ccn(C)n1)CCCC2 [Example 44, trans-4-{[N-(3-{[N′-[3,5-bis(trifluoromethyl)benzyl]-N′-(1-methyl-1H-pyrazol-3-yl)amino]methyl}-5,6,7,8-tetrahydronaphthalen-2-yl)-N-ethylamino]methyl}cyclohexanecarboxylic acid hydrochloride]",360
